The values that follow come from patent US4210667A, “Pharmaceutical preparations containing coumarin carboxylic acid derivatives” (Pfizer Inc., priority 1979, dated 1980).

Test [1] has as its target T1, aldose reductase (Bos taurus, UniProt P16116).
T1 construct: partially purified aldose reductase enzyme obtained from calf lens; from tissue; host or cells: calf lens
Kind of test: Aldose reductase inhibitory activity (partially purified enzyme from calf lens). Format: biochemical. Particulars: 10^-4 M, relative to untreated controls, Examples 2, 4, 5: average of two tests, read-out: Degree of Inhibition at 10^-4 Molar. An excerpt:
(§1) The ability of the active ingredients of the preparations, the derivatives,to control chronic diabetic complications and enzymatic reduction of aldoses may be determined by a number of standard biological or pharmacological tests. These include (1) measuring the ability to inhibit the enzyme activity or isolated aldose reductase; (2) measuring the ability to reduce or inhibit sorbitol accumulation in the sciatic nerve of acutely streptozotocinized (i.e., diabetic) rats; (3) measuring the ability to reverse already-elevated sorbitol levels in the sciatic nerve and lens of chronic streptozocin-induced diabetic rats; (4) measuring the ability to prevent or inhibit galactitol formation in the lens of acutely galactosemic rats; and (5) measuring the ability to delay cataract formation and reduce the severity of lens opacities in chronic galactosemic rats.
The derivatives prepared in Examples 1-7 were tested for their ability to reduce or inhibit aldose reductase enzyme activity, following the procedure described in U.S. Pat. No. 3,821,383 and based on the procedure of Hayman et. al., Journal of Biological Chemistry, 240, 877 (1965). The substrate employed was partially purified aldose reductase enzyme obtained from calf lens. The drugs were tested at a level of 10^-4 M to determine the degree of inhibition of enzyme activity relative to untreated controls.

The subject of test [2] is sorbitol accumulation in the sciatic nerve of streptozotocinized (i.e., diabetic) rats. Kind of test: Inhibition of sorbitol accumulation in the sciatic nerve of streptozotocinized (diabetic) rats. Type of test: in vivo, rat. Particulars: 25 mg./kg. t.i.d. oral, at 4, 8 and 24 hours after streptozotocin; measured at 27 hours; vs untreated control; Examples 1, 5: average of two tests.
From the text: as §1
Some of the Examples of derivatives prepared above were also tested for their ability to reduce or inhibit sorbitol accumulation in the sciatic nerve of streptozotocinized (i.e., diabetic) rats essentially by the procedure described in U.S. Pat. No. 3,821,383. In the present study, the amount of sorbitol accumulation in the sciatic nerves was measured 27 hours after induction of diabetes. The compounds were administered orally at the dose level indicated at 4, 8 and 24 hours following the administration of streptozotocin. The results obtained in this manner are presented in terms of percent inhibition (%) afforded by the test compound compared to the control where no compound was administered (i.e., the untreated animal where sorbitol levels normally rise from approximately […] tissue to as high as […] tissue in the 27-hour test period).

One may read the inhibition as the share of the control response that was lost under treatment. The term % Inhibition denotes the share of the control response that was lost under treatment. Read a high % Inhibition as a strong effect. `Cc1cc2oc(=O)c(C)c(CC(=O)O)c2cc1C` [Example 1, 3,6,7-trimethylcoumarin-4-acetic acid]: the inhibition at 100 µM in test [1] amounted to 81%. In test [2], the “% Inhibition at Dose (sorbitol accumulation in sciatic nerve)” value (“% Inhibition at Dose” below) is 21%.

Turning to `Cc1cc(C)c2c(CC(=O)O)cc(=O)oc2c1` [Example 3, 5,7-dimethylcoumarin-4-acetic acid], in test [1], the inhibition at 100 µM stood at 91%. The “% Inhibition at Dose” value in test [2] stood at 11%.

`Cc1ccc2c(CC(=O)O)cc(=O)oc2c1` [Example 4, 7-methylcoumarin-4-acetic acid]: the inhibition at 100 µM in test [1] amounted to 94%.

In the case of `O=C(O)Cc1cc(=O)oc2c1cc(Cl)c1ccccc12` [Example 2, 6-chloro-1:2-alpha-naphthapyrone-4-acetic acid], in test [1], the inhibition at 100 µM was determined as 91%. Besides, the “% Inhibition at Dose” value in test [2] was 9%.

In the case of `Cc1cc2oc(=O)cc(CC(=O)O)c2cc1C` [Example 5, 6,7-dimethylcoumarin-4-acetic acid], the inhibition at 100 µM in test [1] turned out to be 94%. For the same molecule, the “% Inhibition at Dose” value in test [2] came out at 4%.

Consider `Cc1cc(Cl)cc2c(C(=O)O)cc(=O)oc12` [Example 6, 6-chloro-8-methylcoumarin-4-carboxylic acid], for which, in test [1], the inhibition at 100 µM was 65%.
